The source of these data is patent publication US20060057073A1, “Wet granulation process” (Pari GmbH, priority 2002, published 2006).

The nature of data set [1]: Bulk density according to Ph. Eur. It counts as physicochemical.
The conditions of data set [2]: drug substance as free acid; cited from earlier work.
Data set [3] is described as follows: Particle size by laser diffraction (Malvern MasterSizer 2000, dry dispersing). The class given is physicochemical. The following applies: mean diameter of the volume distribution; mean of three measurements.
The conditions of data set [4]: base; cited from earlier work.

Each structure is given as a SMILES string.

With `C[C@H]1[C@H](NC(=O)/C(=N\OC(C)(C)C(=O)O)c2csc(N)n2)C(=O)N1S(=O)(=O)O` [Aztreonam], the Bulk density in data set [1] came to 0.49 g/mL. Further, the Aqueous solubility in the data set “Aqueous solubility” is listed as less than 0.1%. The “Aqueous solubility (in words)” value in “Aqueous solubility” (in water) is “nearly insoluble”. In data set [2], the “intrinsic pH” value was “about 1”.
In data set [1], `COc1ccc(Cc2nccc3cc(OC)c(OC)cc23)cc1OC` [papaverine] yielded a Bulk density of 0.41 g/mL. The “D50% (laser diffraction)” value in data set [3] is recorded as 28.5 μm. Moreover, the pK in data set [4] is given as 8.07.
